The text below walks through data of ChEMBL document CHEMBL1148006, “Benzimidazo[1,2-c][1,2,3]thiadiazole-7-sulfonamides as inhibitors of carbonic anhydrase” (Bioorg Med Chem Lett, 2007).

Usually Kd stands for the equilibrium constant for the complex coming apart. Low readings indicate a tighter complex, high ones a looser complex.

Chain of Carbonic anhydrase 2 (P00921 whole entry): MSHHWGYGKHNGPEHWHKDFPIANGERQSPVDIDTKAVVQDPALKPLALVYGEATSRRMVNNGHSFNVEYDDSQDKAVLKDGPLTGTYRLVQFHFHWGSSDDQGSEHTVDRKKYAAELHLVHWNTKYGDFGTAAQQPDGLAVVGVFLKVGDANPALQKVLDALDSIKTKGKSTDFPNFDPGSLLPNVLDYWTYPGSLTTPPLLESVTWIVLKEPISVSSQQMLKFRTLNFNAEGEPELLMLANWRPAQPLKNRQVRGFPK

This test concerns the target Carbonic anhydrase 2 (Bos taurus, UniProt P00921). Put plainly: Binding affinity to bovine CA2 by typical isothermal titration calorimetry.
Consider `NS(=O)(=O)c1ccc2nc3n(c2c1)N=S=C3N1CCOCC1`, for which binding was characterised by a dissociation constant (Kd) of 38 nM. In turn, `NS(=O)(=O)c1ccc2nc3n(c2c1)N=S=C3Sc1ccccc1` gave a Kd of 285 nM. Compound `NS(=O)(=O)c1ccc2nc3n(c2c1)N=S=C3Cl` gave a Kd of 141 nM.

Consider `CS(=O)(=O)C1=S=Nn2c1nc1ccc(S(N)(=O)=O)cc12`, for which binding was characterised by a dissociation constant (Kd) of 500 nM. Compound `CSC1=S=Nn2c1nc1ccc(S(N)(=O)=O)cc12` yielded a Kd of 322 nM. Compared with the last compound, the Kd is about 1.6-fold lower.

`CN1CCN(C2=S=Nn3c2nc2ccc(S(N)(=O)=O)cc23)CC1` had a Kd of 391 nM. This Kd and that of the compound before are within 1.5-fold of each other. Consider `NS(=O)(=O)c1ccc2nc3n(c2c1)N=S=C3`, for which the Kd turned out to be 286 nM. The Kd values of the last two compounds are within 1.5-fold of each other.
